Measured values taken from patent US20250164463A1, “SCREENING METHOD AND THERAPEUTIC AGENT FOR MENTAL DISORDER” (Fujita Health University, priority 2022, published 2025).

Experiments:
[1] = system: myelin sheath marker (MAG) in prefrontal cortexes of mice after alcohol intake and alcohol abstinence; assay: Immunohistochemical staining of prefrontal cortex with myelin sheath marker (MAG), myelin sheath formation enhancing effect; assay type: in vivo; details: clemastine 10 mg/kg orally every day after end of EtOH administration, ImageJ, FIG. 8(b), 8(c)
Method: Mice (4 mice for each group) were administered EtOH in the same manner as in Examples 1 and 2. Control mice (4 mice for each group) were orally administered sterile water in the same amount as that in the mice administered EtOH. […] Frozen slices of prefrontal cortexes and hippocampuses of the mice prepared were heated in a 10 mM citrate buffer solution (pH 6.0) with a microwave oven for 5 minutes. After washed with PBS, the slices were subjected to blocking with 5% normal horse serum (Cat #S-2000, Vector Laboratories, Inc., Burlingame, CA, USA) in PBST for 1 hour. After that, the slices were caused to react with one of primary antibodies at 4° C. overnight. After washed with PBST, the slices were caused to react with a secondary antibody (1:2,000) at room temperature for 3 hours. The primary antibodies used were a mouse anti-CC1 antibody (1:500; Cat #MABF850, Millipore) and a goat anti-PDGFRα antibody (1:200; Cat #AF1062, R&D Systems Inc.)

[2] = system: mice after alcohol intake and alcohol abstinence; assay: Novelty suppressed feeding test (NSF) in mice after alcohol intake and alcohol abstinence; assay type: in vivo, C57BL/6J mice; details: clemastine 10 mg/kg orally every day from end of EtOH administration to final day of behavioral tests; EtOH+clemastine group vs EtOH group; FIG. 5(b)
Method: (§1) Male C57BL/6J mice at the age of 4 weeks (P28) were used. The mice were accommodated in a plastic cage and maintained at a light-dark cycle of 12 hours (lighting at 8:00 A.M.) with ad libitum access to feed and water.
(§2) Sixteen mice were orally administered EtOH (3.0 g/kg; diluted to 25% with sterile water) intermittently from P28 to P45 for 10 days in total (once a day) according to the schedule of FIG. 1(a). Sixteen control mice were orally administered sterile water in the same amount as that in the mice administered EtOH.
(§3) All the behavioral experiments were performed between 10:00 A.M. and 6:00 P.M. To obtain an indicator of sociality, a social interaction test was conducted. To obtain an indicator of anxiety behavior, a marble-burying behavior test and a novelty suppressed feeding test were conducted. To obtain an indicator of cognitive function, a novel object recognition test was conducted. To reduce influences from previous experiments, the social interaction test, the marble-burying behavior test, the novelty suppressed feeding test, and the novel object recognition test were conducted in the stated order. […]
The novelty suppressed feeding test was conducted by a method in conformity with a previous report (Lu Q et al., Behav Brain Res. 2019 Oct. 17; 372: 112053). […] A latency time taken for feed intake was recorded. […]

[3] = system: mice after alcohol intake and alcohol abstinence; assay: Social interaction test (SIT) in mice after alcohol intake and alcohol abstinence; assay type: in vivo, C57BL/6J mice; details: clemastine 10 mg/kg orally every day from end of EtOH administration to final day of behavioral tests; EtOH+clemastine group vs EtOH group; FIG. 5(b)
Method: as §1, §2
All the behavioral experiments were performed between 10:00 A.M. and 6:00 P.M. To obtain an indicator of sociality, a social interaction test was conducted. To obtain an indicator of anxiety behavior, a marble-burying behavior test and a novelty suppressed feeding test were conducted. To obtain an indicator of cognitive function, a novel object recognition test was conducted. […]
The social interaction test was conducted by a method in conformity with a previous report (Mouri A et al., J Neurosci. 2012 Mar. 28; 32(13): 4562-80). […] A time length of a social interaction (e.g., smelling each other, grooming each other, pursuing, mounting, or crawling) was recorded. […]

[4] = system: mice after alcohol intake and alcohol abstinence; assay: Marble-burying behavior test (MB) in mice after alcohol intake and alcohol abstinence; assay type: in vivo, C57BL/6J mice; details: clemastine 10 mg/kg orally every day from end of EtOH administration to final day of behavioral tests; EtOH+clemastine group vs EtOH group; FIG. 5(b)
Method: as §1, §2, §3
The marble-burying behavior test was conducted by a method in conformity with a previous report (Alkam T et al., Behav Brain Res. 2013 Feb. 15; 239: 80-9). […] When ⅔ of the surface area of a marble was covered with the sawdust, the marble was counted as being buried. […]

CN1CCC[C@@H]1CCO[C@](C)(c1ccccc1)c1ccc(Cl)cc1 [clemastine]
significantly remitted: myelin sheath abnormality in the prefrontal cortexes (MAG signal intensity) [1] | anxiety-like behavior (novelty suppressed feeding test) [2] | social interaction reduction (social interaction test) [3] | anxiety-like behavior (marble-burying behavior test) [4]
